From PubChem BioAssay (NCI)
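Step 1: Grow cells in 96-well plates. Step 2: Expose to compound for 48 hours at 5 concentrations. Step 3: Interpolate endpoints linearly; if unreached, use highest concentration. Abbreviation: GI50, concentration required for 50% inhibition of growth. TGI: concentration producing complete growth inhibition.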

Legend:
Assay in all cases: inhibition of tumour cell growth, NCI panel, 48 h
CAKI-1 renal = test system: CAKI-1 renal
NCI-H460 lung = test system: NCI-H460 lung
RXF-631 renal = test system: RXF-631 renal
U251 CNS = test system: U251 CNS
HCT-116 colon = test system: HCT-116 colon
OVCAR-4 ovarian = test system: OVCAR-4 ovarian
NCI-H23 lung = test system: NCI-H23 lung
SNB-19 CNS = test system: SNB-19 CNS
CCRF-CEM leukemia = test system: CCRF-CEM leukemia
KM12 colon = test system: KM12 colon
A549 NSCLC = test system: A549 NSCLC
TK-10 renal = test system: TK-10 renal
K-562 leukemia = test system: K-562 leukemia
MALME-3M melanoma = test system: MALME-3M melanoma
IGROV1 ovarian = test system: IGROV1 ovarian
SK-OV-3 ovarian = test system: SK-OV-3 ovarian
LXFL 529 NSCLC = test system: LXFL 529 NSCLC
KM20L2 colon = test system: KM20L2 colon
HCT-15 colon = test system: HCT-15 colon
SR leukemia = test system: SR leukemia
HOP-18 NSCLC = test system: HOP-18 NSCLC
HOP-62 NSCLC = test system: HOP-62 NSCLC
SF-295 CNS = test system: SF-295 CNS
OVCAR-8 ovarian = test system: OVCAR-8 ovarian
RXF 393 renal = test system: RXF 393 renal
SN12C renal = test system: SN12C renal
SW-620 colon = test system: SW-620 colon
SF-539 CNS = test system: SF-539 CNS
DLD-1 colon = test system: DLD-1 colon
786-0 renal = test system: 786-0 renal
SK-MEL-2 melanoma = test system: SK-MEL-2 melanoma
HOP-92 NSCLC = test system: HOP-92 NSCLC
UO-31 renal = test system: UO-31 renal
OVCAR-3 ovarian = test system: OVCAR-3 ovarian
DMS 114 small cell lung = test system: DMS 114 small cell lung
NCI-H226 lung = test system: NCI-H226 lung
EKVX NSCLC = test system: EKVX NSCLC
OVCAR-5 ovarian = test system: OVCAR-5 ovarian
RPMI-8226 leukemia = test system: RPMI-8226 leukemia
LOX IMVI melanoma = test system: LOX IMVI melanoma
M14 melanoma = test system: M14 melanoma
UACC-257 melanoma = test system: UACC-257 melanoma
SF-268 CNS = test system: SF-268 CNS
ACHN renal = test system: ACHN renal
HT29 colon = test system: HT29 colon
HL-60(TB) leukemia = test system: HL-60(TB) leukemia
M19-MEL melanoma = test system: M19-MEL melanoma
MOLT-4 leukemia = test system: MOLT-4 leukemia
HCC-2998 colon = test system: HCC-2998 colon
SNB-78 CNS = test system: SNB-78 CNS
SK-MEL-5 melanoma = test system: SK-MEL-5 melanoma
UACC-62 melanoma = test system: UACC-62 melanoma
XF 498 CNS = test system: XF 498 CNS
COLO 205 colon = test system: COLO 205 colon
A498 renal = test system: A498 renal
DMS 273 small cell lung = test system: DMS 273 small cell lung
NCI-H522 lung = test system: NCI-H522 lung
SNB-75 CNS = test system: SNB-75 CNS

Which results are given for `[C-]#[O+].[C-]#[O+].[C-]#[O+].[C-]#[O+].[Ir].[Ir].[O-]c1ccc2ccccc2c1C=Nc1ccc(N=Cc2c([O-])ccc3ccccc23)cc1`?
GI50 (CAKI-1 renal): > 100 µM; TGI (CAKI-1 renal): > 100 µM; GI50 (NCI-H460 lung): > 100 µM; TGI (NCI-H460 lung): > 100 µM; GI50 (RXF-631 renal): > 100 µM; TGI (RXF-631 renal): > 100 µM; GI50 (U251 CNS): > 100 µM; TGI (U251 CNS): > 100 µM; GI50 (HCT-116 colon): > 100 µM; TGI (HCT-116 colon): > 100 µM; GI50 (OVCAR-4 ovarian): > 100 µM; TGI (OVCAR-4 ovarian): > 100 µM; GI50 (NCI-H23 lung): > 100 µM; TGI (NCI-H23 lung): > 100 µM; GI50 (SNB-19 CNS): 63.6 µM; TGI (SNB-19 CNS): > 100 µM; GI50 (CCRF-CEM leukemia): 66 µM; TGI (CCRF-CEM leukemia): > 100 µM; GI50 (KM12 colon): > 100 µM; TGI (KM12 colon): > 100 µM; GI50 (A549 NSCLC): > 100 µM; TGI (A549 NSCLC): > 100 µM; GI50 (TK-10 renal): > 100 µM; TGI (TK-10 renal): > 100 µM; GI50 (K-562 leukemia): 40.1 µM; TGI (K-562 leukemia): > 100 µM; GI50 (MALME-3M melanoma): > 100 µM; TGI (MALME-3M melanoma): > 100 µM; GI50 (IGROV1 ovarian): > 100 µM; TGI (IGROV1 ovarian): > 100 µM; GI50 (SK-OV-3 ovarian): > 100 µM; TGI (SK-OV-3 ovarian): > 100 µM; GI50 (LXFL 529 NSCLC): > 100 µM; TGI (LXFL 529 NSCLC): > 100 µM; GI50 (KM20L2 colon): 59.2 µM; TGI (KM20L2 colon): > 100 µM; GI50 (HCT-15 colon): > 100 µM; TGI (HCT-15 colon): > 100 µM; GI50 (SR leukemia): > 100 µM; TGI (SR leukemia): > 100 µM; GI50 (HOP-18 NSCLC): > 100 µM; TGI (HOP-18 NSCLC): > 100 µM; GI50 (HOP-62 NSCLC): > 100 µM; TGI (HOP-62 NSCLC): > 100 µM; GI50 (SF-295 CNS): > 100 µM; TGI (SF-295 CNS): > 100 µM; GI50 (OVCAR-8 ovarian): > 100 µM; TGI (OVCAR-8 ovarian): > 100 µM; GI50 (RXF 393 renal): > 100 µM; TGI (RXF 393 renal): > 100 µM; GI50 (SN12C renal): > 100 µM; TGI (SN12C renal): > 100 µM; GI50 (SW-620 colon): > 100 µM; TGI (SW-620 colon): > 100 µM; GI50 (SF-539 CNS): > 100 µM; TGI (SF-539 CNS): > 100 µM; GI50 (DLD-1 colon): > 100 µM; TGI (DLD-1 colon): > 100 µM; GI50 (786-0 renal): 46.3 µM; TGI (786-0 renal): > 100 µM; GI50 (SK-MEL-2 melanoma): > 100 µM; TGI (SK-MEL-2 melanoma): > 100 µM; GI50 (HOP-92 NSCLC): 40 µM; TGI (HOP-92 NSCLC): > 100 µM; GI50 (UO-31 renal): > 100 µM; TGI (UO-31 renal): > 100 µM; GI50 (OVCAR-3 ovarian): > 100 µM; TGI (OVCAR-3 ovarian): > 100 µM; GI50 (DMS 114 small cell lung): > 100 µM; TGI (DMS 114 small cell lung): > 100 µM; GI50 (NCI-H226 lung): > 100 µM; TGI (NCI-H226 lung): > 100 µM; GI50 (EKVX NSCLC): > 100 µM; TGI (EKVX NSCLC): > 100 µM; GI50 (OVCAR-5 ovarian): > 100 µM; TGI (OVCAR-5 ovarian): > 100 µM; GI50 (RPMI-8226 leukemia): > 100 µM; TGI (RPMI-8226 leukemia): > 100 µM; GI50 (LOX IMVI melanoma): > 100 µM; TGI (LOX IMVI melanoma): > 100 µM; GI50 (M14 melanoma): > 100 µM; TGI (M14 melanoma): > 100 µM; GI50 (UACC-257 melanoma): > 100 µM; TGI (UACC-257 melanoma): > 100 µM; GI50 (SF-268 CNS): > 100 µM; TGI (SF-268 CNS): > 100 µM; GI50 (ACHN renal): > 100 µM; TGI (ACHN renal): > 100 µM; GI50 (HT29 colon): > 100 µM; TGI (HT29 colon): > 100 µM; GI50 (HL-60(TB) leukemia): 75.5 µM; TGI (HL-60(TB) leukemia): > 100 µM; GI50 (M19-MEL melanoma): > 100 µM; TGI (M19-MEL melanoma): > 100 µM; GI50 (MOLT-4 leukemia): 37.1 µM; TGI (MOLT-4 leukemia): > 100 µM; GI50 (HCC-2998 colon): > 100 µM; TGI (HCC-2998 colon): > 100 µM; GI50 (SNB-78 CNS): > 100 µM; TGI (SNB-78 CNS): > 100 µM; GI50 (SK-MEL-5 melanoma): > 100 µM; TGI (SK-MEL-5 melanoma): > 100 µM; GI50 (UACC-62 melanoma): > 100 µM; TGI (UACC-62 melanoma): > 100 µM; GI50 (XF 498 CNS): > 100 µM; TGI (XF 498 CNS): > 100 µM; GI50 (COLO 205 colon): > 100 µM; TGI (COLO 205 colon): > 100 µM

`COc1ccc2cc1Oc1ccc(cc1)C[C@@H]1c3cc(c(OC)cc3CCN1C)Oc1c(OC)c(OC)cc3c1[C@@H](C2)N(C)CC3` was tested. Which TGI (NCI-H460 lung) did it give?
The TGI was 27.3 µM.

And the TGI (RXF-631 renal)?
The TGI was 30 µM.

What about the TGI (U251 CNS) of the same compound?
The TGI was 26 µM.

What about the TGI (HCT-116 colon) of the same compound?
Its TGI is 13 µM.

What about the TGI (NCI-H23 lung) of the same compound?
The TGI was 33.7 µM.

And the TGI (SNB-19 CNS)?
The TGI was 30.8 µM.

What about the TGI (CCRF-CEM leukemia) of the same compound?
Its TGI is 35 µM.

And the TGI (TK-10 renal)?
Its TGI is 33.5 µM.

And the TGI (K-562 leukemia)?
Its TGI is 9.77 µM.

What about the TGI (IGROV1 ovarian) of the same compound?
The TGI was 40.8 µM.

What about the TGI (SK-OV-3 ovarian) of the same compound?
The TGI was 41.2 µM.

And the TGI (LXFL 529 NSCLC)?
The TGI was 32.7 µM.

What about the TGI (KM20L2 colon) of the same compound?
Its TGI is 21.3 µM.

What about the TGI (HCT-15 colon) of the same compound?
Its TGI is 30 µM.

And the TGI (SR leukemia)?
Its TGI is 43.3 µM.

What about the TGI (HOP-62 NSCLC) of the same compound?
The TGI was 35.8 µM.

What about the TGI (SF-295 CNS) of the same compound?
The TGI was 31.3 µM.

What about the TGI (OVCAR-8 ovarian) of the same compound?
The TGI was 28.2 µM.

What about the TGI (RXF 393 renal) of the same compound?
Its TGI is 8.77 µM.

And the TGI (SF-539 CNS)?
Its TGI is 23 µM.

And the TGI (DLD-1 colon)?
The TGI was 71.6 µM.

And the TGI (A498 renal)?
The TGI was 32.5 µM.

And the TGI (DMS 273 small cell lung)?
The TGI was 35.3 µM.

What about the TGI (HOP-92 NSCLC) of the same compound?
The TGI was 26.9 µM.

And the TGI (OVCAR-3 ovarian)?
The TGI was 33.8 µM.

And the TGI (RPMI-8226 leukemia)?
Its TGI is 39.9 µM.

And the TGI (M14 melanoma)?
The TGI was 4.01 µM.

What about the TGI (UACC-257 melanoma) of the same compound?
Its TGI is 28.1 µM.

What about the TGI (NCI-H522 lung) of the same compound?
The TGI was 30 µM.

And the TGI (SF-268 CNS)?
The TGI was 52.4 µM.

What about the TGI (ACHN renal) of the same compound?
The TGI was 34.8 µM.

What about the TGI (HL-60(TB) leukemia) of the same compound?
Its TGI is 39.9 µM.

What about the TGI (HCC-2998 colon) of the same compound?
Its TGI is 30.7 µM.

What about the TGI (SNB-78 CNS) of the same compound?
The TGI was 31.6 µM.

And the TGI (SNB-75 CNS)?
Its TGI is 23.7 µM.

And the TGI (SK-MEL-5 melanoma)?
The TGI was 33.8 µM.

And the TGI (XF 498 CNS)?
Its TGI is 19.3 µM.
